Patent US12698308B2, “Peptide for preventing or treating inflammatory diseases” (AJOU UNIVERSITY INDUSTRY-ACADEMIC COOPERATION FOUNDATION, priority 2021, dated 2026)
Ends that are not written are not given here.

Tests used:
[1] = tested on: mice with Behçet's disease; test: Skin symptom improvement in mice with Behçet's disease; type: in vivo; details: external agent on skin, 1 μg/mouse once a day for 10 days; FIG. 6
Procedure: After applying the peptide-including external agent used in the Experimental Example 5 to the skin of mice with Behçet's disease, changes in the symptom improvement were checked. Administration was performed by 1 μg/mouse once a day for 10 days.

IL-1 beta = test: Genetic analysis via real-time PCR in vitro, cytokine expression in cultured cells; type: cell-based, mouse; details: for cytokine IL-1 beta in the lymph node: FIG. 2H; for cytokine IL-1 beta in the spleen: peptide treatment 24 hours, FIG. 2D
ROR-gammaT gene = test: Genetic analysis via real-time PCR in vitro, gene expression in cultured cells; type: cell-based, mouse; details: for expression of ROR-gammaT gene in the lymph node: FIG. 2F
Procedure: (§1) While culturing spleen cells isolated from the spleen of 4-week-old male ICR mice weighing 25 g, various types of peptides having lipidized at terminus of the peptides were treated to cells, and changes in cytokine expression were observed via real-time PCR. Spleen cell isolation was performed by cutting out the spleen from mice, placing the spleen on a cell filter, crushing the spleen on a Petri dish through the cell filter using the plunger tip of a syringe, rinsing the cell filter with PBS, and transferring the suspended cells to 15 mL conical tube. Cells were centrifuged at 4° C. and 800×g for 5 minutes. Subsequently, the supernatant was discarded, and the pellets were resuspended in 1 mL of ACK buffer (ammonium-chloride-potassium lysing buffer). After leaving at room temperature for 5 to 10 minutes, […] of PBS at 4° C. was added, and the cells were centrifuged again at 4° C. and 800×g for 5 minutes. The supernatant was discarded again, the pellets were resuspended in 5 mL of culture, and 2×10^6 cells/mL were cultured in DMEM medium. Before culturing spleen cells in an incubator, 1 μg/mL anti-CD3 Ab was coated on the bottom of a culture container, after 24 hours, culture was performed for 3 days in DMEM medium including 1 μg of anti-CD28 Ab, 20 ng of IL-6, 5 ng of TGF beta, and 20 ng of IL-23 per 1 mL of culture medium, and then the peptides were treated, followed by culture for another 24 hours.

Ly6G+ (neutrophil) cells = test: Frequency of Ly6G+ (neutrophil) cells in peripheral blood of collagen induced arthritis (CIA) mice; type: in vivo, mouse; details: 1 μg intramuscularly 10 times (once every 2 days), FIG. 8
Procedure: (§2) Collagen was mixed with an adjuvant and injected subcutaneously into the tail twice (Day 1 and Day 11) to prepare arthritis model mice. The adjuvant is a mixture of 17 μL of high-concentration paraffin oil (Fisher, cat. no. 0122-1) and 68 μg (17 μL) of complete Freund adjuvant (CFA; Sigma-Aldrich, cat. no. F5881), which was used by mixing with 34 μg (17 μL) of bovine type II collagen (MD bioproducts cat. no. 804001-Sol). From the day after the second collagen injection (day 12), 1 μg (100 μL) of peptide was administered intramuscularly to the hind legs 10 times (once every 2 days), and mouse peripheral blood cells were isolated to analyze the frequency of Ly6G+ cells via flow cytometry. Peripheral blood cells were isolated from mouse hearts, red blood cells were lysed in ACK buffer (ammonium-chloride-potassium lysing buffer), and then centrifugation was performed to collect only blood cells to be used for antibody staining for the analysis with the flow cytometer. Using Ly6G+ as a neutrophil marker, whether the peptide inhibits a frequency of inflammation-induced neutrophil cells in an arthritis model was determined. Methotrexate (MTX) was used as a control drug.

[2] = tested on: arthritis model mice (collagen induced arthritis, CIA); test: Ankle thickness in collagen induced arthritis (CIA) mice; type: in vivo, mouse; details: at day 30, compared to arthritis mice (control) without receiving peptides; FIGS. 9A-9B
Procedure: as §2
Since the thickness of the ankle increases due to edema caused by arthritis, the ankle thickness was measured to determine whether peptide administration may relieve edema caused by inflammation. The ankle thickness was measured with a digital caliper at the thickest part of the ankle.

TNF-alpha = test: Genetic analysis via real-time PCR in vitro, cytokine expression in cultured cells; type: cell-based, mouse; details: for cytokine TNF-alpha in the spleen: peptide treatment 24 hours, FIG. 2C; for cytokine TNF-alpha in the lymph node: FIG. 2G
Procedure: as §1

IL-17 = test: as above; type: cell-based, mouse; details: for cytokine IL-17 in the lymph node: FIG. 2E; for cytokine IL-17 in the spleen: peptide treatment 24 hours, FIG. 2A
Procedure: as §1

Substance | skin symptom improvement [1] | cytokine IL-1 beta in the lymph node (IL-1 beta) | cytokine IL-1 beta in the spleen (IL-1 beta) | expression of ROR-gammaT gene in the lymph node (ROR-gammaT gene) | frequency of Ly6G+ cells (Ly6G+ (neutrophil) cells) | thickness of the ankle [2] | cytokine TNF-alpha in the spleen (TNF-alpha) | cytokine IL-17 in the lymph node (IL-17) | cytokine IL-17 in the spleen (IL-17) | cytokine TNF-alpha in the lymph node (TNF-alpha) | expression of ROR-gammaT gene in the spleen (ROR-gammaT gene; spleen, peptide treatment 24 hours, FIG. 2B)
GCAATCPEAKPREIVECCSTDKCNH (SEQ ID NO: 7) (E4) [Peptide E4] | almost disappeared after 10 days, and the wound healed | – | – | – | – | – | – | – | – | – | –
LICPEKYCNKVHTCRNGENICF (SEQ ID NO: 4) (E1) [Peptide E1] | the symptom almost disappeared after 10 days | reduced | reduced | reduced | decreased to a statistically significant level | significantly reduced | reduced | reduced | reduced | – | –
LTCLICPEKYCNKVHTCRNGENICF (SEQ ID NO: 5) (E2) [Peptide E2] | improved the skin erythema | – | reduced | reduced | – | significantly reduced | reduced | reduced | reduced | reduced | –
P1M: P1 peptide (SEQ ID NO: 1) with myristoylation, component of P124-M (LICPEKYCNKVHT; cysteine pairing not given here; also: myristoylation) [Peptide P1M] | – | – | reduced | – | – | – | – | – | – | – | –
P2M: P2 peptide (SEQ ID NO: 2) with myristoylation, component of P124-M (YCNKVHTCRNG; cysteine pairing not given here; also: myristoylation) [Peptide P2M] | – | – | – | – | – | – | reduced | reduced | reduced | – | –
P4M: P4 peptide (SEQ ID NO: 3) with myristoylation, component of P124-M (HTCRNGENICF; cysteine pairing not given here; also: myristoylation) [Peptide P4M] | – | – | reduced | – | – | – | reduced | reduced | – | – | –
TCPEAKPREIVECCSTDKCNH (SEQ ID NO: 6) (E3) [Peptide E3] | – | reduced | reduced | reduced | – | significantly reduced | reduced | reduced | reduced | reduced | reduced
